Test results from US9255090B2, “Heterocyclyl derivatives and their use as prostaglandin D2 receptor modulators” (Actelion Pharmaceuticals Ltd., priority 2012, dated 2016).

Legend:
[1] = molecular target: hCRTH2 receptor (Homo sapiens (Human), UniProt Q9Y5Y4); experiment: hCRTH2 receptor membranes radioligand (3H-PGD2) displacement assay; type: binding; conditions: 3H-PGD2 radioligand displacement, HEK293-hCRTH2 membranes
Outline: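 Compound was first mixed with buffer, then 3H-PGD2 was added at 2.5 nM, and the reaction was started with hCRTH2 membranes from HEK293 cells at 20 μg/well. After 90 min at room temperature, mixtures were filtered and washed with ice-cold buffer, and retained radioactivity was counted.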

[2] = system: eosinophils; experiment: Eosinophil shape change assay with human plasma; type: cell-based; conditions: human plasma (50%), PGD2 100 nM activation, antagonistic activity
Text: Eosinophil Shape Change Assay with Human Plasma
After obtaining informed consent, blood samples were drawn by venipuncture according to the protocol approved by the ethics committee of Basel, Switzerland. Polymorphonuclear leukocytes (containing eosinophils, basophils and neutrophils) were isolated using the Polymorphprep™ method (Axis-Shield). […] The polymorphonuclear cell fraction was harvested and depleted for erythrocytes by hypotonic saline lysis.
The polymorphonuclear cells were resuspended in assay buffer (1×PBS with Ca^2+/Mg^2+ supplemented with 0.1% BSA, 10 mM HEPES, and 10 mM Glucose, pH 7.4) at 5×10^6 cells/ml and stained with anti-CD49d-APC ((APC=Allophycocyanin) for 1 hour at RT. Test compounds, at various concentrations, were preincubated 10 min in human plasma (anticoagulated with a thrombin inhibitor). Then, human plasma was added to the polymorphonuclear cells to 50% of final assay volume with polymorphonuclear cells at 4×10^6 cells/ml. After incubation for 10 minutes at 37° C., the polymorphonuclear cells were activated for 5 min at 37° C. by addition of PGD2 at 100 nM final concentration. Activation was stopped by addition of 0.5 ml paraformaldehyde (1%).
Immediately after fixation with paraformaldehyde, the samples were analyzed by FACSCanto flow cytometer (BD Biosciences) and target cells were identified by their forward-scatter (FSC) and side-scatter (SSC) characteristics. Eosinophils were identified by the anti-CD49d-APC signal and their characteristic side-scatter (SSC) profile. Shape change responses, indicative of eosinophil activation, were quantified as the percent of cells with an increased forward-scatter.

Chain of hCRTH2 receptor (Q9Y5Y4 whole entry): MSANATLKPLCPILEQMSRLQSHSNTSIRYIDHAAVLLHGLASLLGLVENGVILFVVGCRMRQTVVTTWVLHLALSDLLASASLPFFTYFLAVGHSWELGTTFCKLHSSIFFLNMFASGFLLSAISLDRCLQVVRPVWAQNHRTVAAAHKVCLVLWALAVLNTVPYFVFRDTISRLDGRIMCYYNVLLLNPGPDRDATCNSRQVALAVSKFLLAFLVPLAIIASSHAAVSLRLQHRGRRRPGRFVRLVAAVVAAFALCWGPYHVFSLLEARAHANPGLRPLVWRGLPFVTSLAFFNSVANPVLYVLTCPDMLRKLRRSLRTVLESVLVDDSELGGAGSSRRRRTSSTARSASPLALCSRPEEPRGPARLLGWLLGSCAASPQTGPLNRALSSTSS

IC50 [1]	IC50 ([2]; Homo sapiens, Eosinophil)	IC50 [2]	Structure (SMILES)
15.1 nM	> 1000 nM	–	COc1ccc(CC(=O)O)cc1-c1ccc(F)c2c1CN(C(=O)NCc1ccc(F)cc1)CC2 [Example 132, {3-[5-Fluoro-2-(4-fluoro-benzylcarbamoyl)-1,2,3,4-tetrahydro-isoquinolin-8-yl]-4-methoxy-phenyl}-acetic acid]
5.42 nM	908 nM	–	COc1ccc(CC(=O)O)cc1-c1ccc(F)c2c1CN(C(=O)OCc1cccc(F)c1)CC2 [Example 138, 8-(5-Carboxymethyl-2-methoxy-phenyl)-5-fluoro-3,4-dihydro-1H-isoquinoline-2-carboxylic acid 3-fluoro-benzyl ester]
2.53 nM	97 nM	–	COc1ccc(CC(=O)O)cc1-c1ccc(F)c2c1CN(C(=O)OCc1ccc(F)cc1)CC2 [Example 139, 8-(5-Carboxymethyl-2-methoxy-phenyl)-5-fluoro-3,4-dihydro-1H-isoquinoline-2-carboxylic acid 4-fluoro-benzyl ester]
3.06 nM	266 nM	–	COc1ccc(CC(=O)O)cc1-c1ccc(F)c2c1CN(C(=O)OCc1ccccc1F)CC2 [Example 146, 8-(5-Carboxymethyl-2-methoxy-phenyl)-5-fluoro-3,4-dihydro-1H-isoquinoline-2-carboxylic acid 2-fluoro-benzyl ester]
2.51 nM	622 nM	–	COc1ccc(CC(=O)O)cc1-c1ccc(F)c2c1CN(C(=O)OCc1cccc(F)c1F)CC2 [Example 147, 8-(5-Carboxymethyl-2-methoxy-phenyl)-5-fluoro-3,4-dihydro-1H-isoquinoline-2-carboxylic acid 2,3-difluoro-benzyl ester]
5.9 nM	307 nM	–	COc1ccc(CC(=O)O)cc1-c1ccc(Cl)c2c1CN(C(=O)OCc1ccccc1)CC2 [Example 154, 8-(5-Carboxymethyl-2-methoxy-phenyl)-5-chloro-3,4-dihydro-1H-isoquinoline-2-carboxylic acid benzyl ester]
11.7 nM	153 nM	–	COc1ccc(CC(=O)O)cc1-c1ccc(F)c2c1CN(C(=O)OCc1ccccc1)CC2 [Example 157, 8-(5-Carboxymethyl-2-methoxy-phenyl)-5-fluoro-3,4-dihydro-1H-isoquinoline-2-carboxylic acid benzyl ester]
2.47 nM	170 nM	–	O=C(O)COc1ccc(OC(F)(F)F)c(-c2ccc(F)c3c2CN(C(=O)OCc2ccccc2)CC3)c1 [Example 162, 8-(5-Carboxymethoxy-2-trifluoromethoxy-phenyl)-5-fluoro-3,4-dihydro-1H-isoquinoline-2-carboxylic acid benzyl ester]
7.94 nM	141 nM	–	CC(C)Oc1ccc(OCC(=O)O)cc1-c1ccc(F)c2c1CN(C(=O)OCc1ccccc1)CC2 [Example 163, 8-(5-Carboxymethoxy-2-isopropoxy-phenyl)-5-fluoro-3,4-dihydro-1H-isoquinoline-2-carboxylic acid benzyl ester]
4.5 nM	117 nM	–	COc1cc(CC(=O)O)ccc1-c1ccc(F)c2c1CN(C(=O)OCc1ccccc1)CC2 [Example 166, 8-(4-Carboxymethyl-2-methoxy-phenyl)-5-fluoro-3,4-dihydro-1H-isoquinoline-2-carboxylic acid benzyl ester]
17.9 nM	133 nM	–	O=C(O)Cc1cc2c(c(-c3ccc(F)c4c3CN(C(=O)OCc3ccccc3)CC4)c1)OCCO2 [Example 168, 8-(7-Carboxymethyl-2,3-dihydro-benzo[1,4]dioxin-5-yl)-5-fluoro-3,4-dihydro-1H-isoquinoline-2-carboxylic acid benzyl ester]
9.17 nM	146 nM	–	COc1ccc(CC(=O)O)cc1-c1ccc(C#N)c2c1CN(C(=O)OCc1ccccc1)CC2 [Example 169, 8-(5-Carboxymethyl-2-methoxy-phenyl)-5-cyano-3,4-dihydro-1H-isoquinoline-2-carboxylic acid benzyl ester]
21.3 nM	539 nM	–	COc1ccc(OCC(=O)O)cc1-c1ccc(F)c2c1CN(C(=O)OCc1ccccc1)CC2 [Example 177, 8-(5-Carboxymethoxy-2-methoxy-phenyl)-5-fluoro-3,4-dihydro-1H-isoquinoline-2-carboxylic acid benzyl ester]
4.36 nM	34 nM	–	COc1ccc(OCC(=O)O)cc1-c1ccc(F)c2c1CN(C(=O)[C@@H]1C[C@H]1c1ccccc1)CC2 [Example 182, {3-[5-Fluoro-2-((1R,2R)-2-phenyl-cyclopropanecarbonyl)-1,2,3,4-tetrahydro-isoquinolin-8-yl]-4-methoxy-phenoxy}-acetic acid]
0.46 nM	194 nM	–	COc1cc(CC(=O)O)ccc1-c1ccc(F)c2c1CN(C(=O)CCc1cn(C)c3ccccc13)CC2 [Example 183, (4-{5-Fluoro-2-[3-(1-methyl-1H-indol-3-yl)-propionyl]-1,2,3,4-tetrahydro-isoquinolin-8-yl}-3-methoxy-phenyl)-acetic acid]
1.28 nM	97 nM	–	COc1cc(CC(=O)O)ccc1-c1ccc(F)c2c1CN(C(=O)CCCc1ccccc1F)CC2 [Example 185, (4-{5-Fluoro-2-[4-(2-fluoro-phenyl)-butyryl]-1,2,3,4-tetrahydro-isoquinolin-8-yl}-3-methoxy-phenyl)-acetic acid]
0.89 nM	91 nM	–	COc1cc(CC(=O)O)ccc1-c1ccc(F)c2c1CN(C(=O)CCCc1ccccc1)CC2 [Example 187, {4-[5-Fluoro-2-(4-phenyl-butyryl)-1,2,3,4-tetrahydro-isoquinolin-8-yl]-3-methoxy-phenyl}-acetic acid]
0.53 nM	8 nM	–	COc1cc(CC(=O)O)ccc1-c1ccc(F)c2c1CN(C(=O)CC(C)(C)c1ccccc1)CC2 [Example 188, {4-[5-Fluoro-2-(3-methyl-3-phenyl-butyryl)-1,2,3,4-tetrahydro-isoquinolin-8-yl]-3-methoxy-phenyl}-acetic acid]
1.04 nM	62 nM	–	COc1cc(CC(=O)O)ccc1-c1ccc(F)c2c1CN(C(=O)C[C@@H](C)c1ccccc1)CC2 [Example 189, {4-[5-Fluoro-2-((R)-3-phenyl-butyryl)-1,2,3,4-tetrahydro-isoquinolin-8-yl]-3-methoxy-phenyl}-acetic acid]
1.38 nM	94 nM	–	COc1cc(CC(=O)O)ccc1-c1ccc(F)c2c1CN(C(=O)COCc1ccccc1Cl)CC2 [Example 193, (4-{2-[2-(2-Chloro-benzyloxy)-acetyl]-5-fluoro-1,2,3,4-tetrahydro-isoquinolin-8-yl}-3-methoxy-phenyl)-acetic acid]
0.75 nM	188 nM	–	COc1cc(CC(=O)O)ccc1-c1ccc(F)c2c1CN(C(=O)CCc1ccccc1C)CC2 [Example 194, {4-[5-Fluoro-2-(3-o-tolyl-propionyl)-1,2,3,4-tetrahydro-isoquinolin-8-yl]-3-methoxy-phenyl}-acetic acid]
1.06 nM	21 nM	–	CCOc1ccc(CC(=O)O)cc1-c1ccc(F)c2c1CN(C(=O)OCc1ccccc1)CC2 [Example 195, 8-(5-Carboxymethyl-2-ethoxy-phenyl)-5-fluoro-3,4-dihydro-1H-isoquinoline-2-carboxylic acid benzyl ester]
0.28 nM	24 nM	–	CCCOc1ccc(CC(=O)O)cc1-c1ccc(F)c2c1CN(C(=O)OCc1ccccc1)CC2 [Example 197, 8-(5-Carboxymethyl-2-propoxy-phenyl)-5-fluoro-3,4-dihydro-1H-isoquinoline-2-carboxylic acid benzyl ester]
0.49 nM	19 nM	–	COCCOc1ccc(CC(=O)O)cc1-c1ccc(F)c2c1CN(C(=O)OCc1ccccc1)CC2 [Example 199, 8-[5-Carboxymethyl-2-(2-methoxy-ethoxy)-phenyl]-5-fluoro-3,4-dihydro-1H-isoquinoline-2-carboxylic acid benzyl ester]
2.9 nM	–	12 nM	CCOc1ccc(CC(=O)O)cc1-c1ccc(F)c2c1CN(C(=O)CC(C)c1ccccn1)CC2 (stereo not drawn) [Example 203, {4-Ethoxy-3-[5-fluoro-2-(3-pyridin-2-yl-butyryl)-1,2,3,4-tetrahydro-isoquinolin-8-yl]-phenyl}-acetic acid]
2.9 nM	–	30 nM	CCOc1ccc(CC(=O)O)cc1-c1ccc(F)c2c1CN(C(=O)CC(C)c1ccccn1)CC2 (stereo not drawn) [Example 204, {4-Ethoxy-3-[5-fluoro-2-(3-pyridin-2-yl-butyryl)-1,2,3,4-tetrahydro-isoquinolin-8-yl]-phenyl}-acetic acid]

Structure (SMILES)	IC50 [1]	IC50 ([2]; Homo sapiens, Eosinophil)	IC50 [2]
CC(C)COc1ccc(CC(=O)O)cc1-c1ccc(F)c2c1CN(C(=O)OCc1ccccc1)CC2 [Example 198, 8-(5-Carboxymethyl-2-isobutoxy-phenyl)-5-fluoro-3,4-dihydro-1H-isoquinoline-2-carboxylic acid benzyl ester]	1.28 nM	72 nM	–
